In patent US20230181562A1, “USE OF A MULTIFUNCTIONAL LIGAND FOR TREATING DRY EYES, MEIBOMIAN GLAND DYSFUNCTIONS AND LACRIMAL GLAND DYSFUNCTIONS” (H4 ORPHAN PHARMA, priority 2020, published 2023):
pEC50: −log10 of the molar value. Like-named read-outs stand apart in the source and are kept apart here. One block for each molecule: values may come before it. Where no end group is shown, it is not given here.

Key:
[1] = biological target: T1, non-mutated CFTR (Homo sapiens, UniProt P13569); assay: Ussing chamber short-circuit current (ion transport via CFTR); type: cell-based; settings: for effect of Inh172 on cell potential: CFTR inh172 10 μM; for short circuit current differential after addition of tritoqualine: tritoqualine 10 μM
T1 construct: host or cells: human epithelial cells (called glandular / lacrimal gland epithelial cells) grown on Snapwell filters
T1 sequence (P13569 whole entry, change not shown): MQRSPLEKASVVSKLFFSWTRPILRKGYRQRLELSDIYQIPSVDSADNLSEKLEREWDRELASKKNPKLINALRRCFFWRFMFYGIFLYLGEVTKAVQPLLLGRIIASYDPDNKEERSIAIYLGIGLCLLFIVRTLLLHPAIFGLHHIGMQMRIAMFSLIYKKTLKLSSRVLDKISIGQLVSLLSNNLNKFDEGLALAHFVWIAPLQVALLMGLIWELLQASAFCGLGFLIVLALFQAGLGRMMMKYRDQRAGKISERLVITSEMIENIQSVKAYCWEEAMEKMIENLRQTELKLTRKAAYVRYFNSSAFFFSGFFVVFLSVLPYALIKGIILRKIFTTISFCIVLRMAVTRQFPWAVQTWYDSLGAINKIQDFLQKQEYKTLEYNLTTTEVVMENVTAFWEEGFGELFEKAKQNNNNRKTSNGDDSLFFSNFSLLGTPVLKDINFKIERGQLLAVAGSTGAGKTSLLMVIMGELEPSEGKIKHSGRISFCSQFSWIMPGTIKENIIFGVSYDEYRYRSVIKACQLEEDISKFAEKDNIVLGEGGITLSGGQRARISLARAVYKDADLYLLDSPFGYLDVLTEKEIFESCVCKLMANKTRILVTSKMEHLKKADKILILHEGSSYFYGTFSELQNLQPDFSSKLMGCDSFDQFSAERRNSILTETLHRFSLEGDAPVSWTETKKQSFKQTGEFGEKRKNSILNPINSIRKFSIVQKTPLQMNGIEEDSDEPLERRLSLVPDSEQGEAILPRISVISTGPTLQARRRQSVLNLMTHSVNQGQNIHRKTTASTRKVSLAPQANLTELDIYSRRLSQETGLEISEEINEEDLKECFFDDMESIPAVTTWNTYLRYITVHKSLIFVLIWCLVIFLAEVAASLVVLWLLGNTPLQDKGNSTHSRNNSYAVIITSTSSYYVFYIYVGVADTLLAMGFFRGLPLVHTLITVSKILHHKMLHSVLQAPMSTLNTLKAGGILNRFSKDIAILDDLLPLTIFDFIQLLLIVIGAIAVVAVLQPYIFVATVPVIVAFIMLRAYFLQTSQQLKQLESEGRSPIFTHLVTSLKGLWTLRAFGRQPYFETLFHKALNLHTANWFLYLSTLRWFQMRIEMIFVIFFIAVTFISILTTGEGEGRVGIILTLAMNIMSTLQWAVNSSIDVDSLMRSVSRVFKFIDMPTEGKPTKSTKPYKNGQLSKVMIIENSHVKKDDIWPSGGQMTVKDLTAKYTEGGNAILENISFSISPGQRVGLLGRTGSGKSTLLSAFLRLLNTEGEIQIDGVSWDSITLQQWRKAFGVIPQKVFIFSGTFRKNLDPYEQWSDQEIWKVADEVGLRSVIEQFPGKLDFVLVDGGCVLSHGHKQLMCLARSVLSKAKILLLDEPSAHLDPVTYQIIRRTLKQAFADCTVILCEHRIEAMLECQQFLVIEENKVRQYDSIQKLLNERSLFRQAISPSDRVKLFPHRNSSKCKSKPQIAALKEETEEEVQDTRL
Text: To investigate this action on CFTR modulation, the inventors used the Ussing chamber method, invented by the Dane Hans H. Ussing in the late 1950s. This technique makes it possible to study ionic exchanges across an epithelium, as it allows the tissue of interest to be kept alive for a few hours under controlled conditions of temperature and medium. The positioning of the tissue between two half-chambers makes it possible to define an apical compartment (corresponding to the lumen of the organ) and a basolateral compartment (corresponding to the blood compartment) and to investigate exchanges between these two compartments via the tissue.
This technique is used as a routine and is particularly well adapted for a pharmacological approach to ionic transport and to search for molecules of therapeutic interest in the context of ionic secretions of epithelial cells. It consists in measuring the transepithelial current (known as the short-circuit current and noted Ise). Ise is expressed in amperes to unit area of the epithelium (Ise in μA/cm^2). The cells are grown on a porous filter for 10 to 15 days at the liquid-liquid interface and then air-liquid interface in order to mimic conditions close to in vivo. The transepithelial resistance is measured regularly when culturing. The higher this resistance is (several hundred ohms), the more the epithelial tissue is junctive, polarised and therefore tight. At the air (apical side)-liquid (basolateral side) interface the epithelial cells polarise and form a tight mat which can be investigated with the Ussing chamber technique. A system with 6 Physiology Instrument® cuvettes allowing 6 experiments in parallel has been used.
The inventors have used USSING chambers to analyse the activity of tritoqualine on CFTR of glandular epithelial cells.
Typical protocols used for human epithelial cells expressing non-mutated CFTR:
Measurement of short circuit current in the presence of amiloride (ENaC channel inhibitor, 100 μM) followed by addition of 10 μM of the tritoqualine molecule and then addition of CFTR inh172 (10 μM, CFTR inhibitor) followed by addition of UTP (100 μM, validates the experiment by activating the calcium-sensitive Cl transport).
Measurement of short circuit current in the presence of amiloride (100 μM) and forskolin (0.05 μM activator of intracellular cAMP) then addition of 10 μM of the tritoqualine molecule then addition of CFTRinh172 (10 μM) then addition of UTP (100 μM).
Measurement of the short circuit current in the presence of CFTR Inh172 (10 μM) then addition of tritoqualine and forskolin (0.05 μM) then addition of UTP.
The inventors have prepared a 100 μM stock solution in DMSO. The compounds have been aliquoted per 100 μL and stored at −20° C.
Tritoqualine has been added to USSING cells at a dose of 10 μM in non-mutated cells FIG. 5.

[2] = test system: basophils; assay: Flow CAST basophil degranulation (CD63+/CCR3+ flow cytometry); type: cell-based, human
Text: The inventors have used the Kit-Flow CAST (www.buhlmannlabs.ch/products-solutions/cellular-allergy/flow-cast/) to test the action of tritoqualine on the inhibition of basophil degranulation. The marker for degranulation is CD63. Upon basophil activation, CD63 markers bound to intracytoplasmic granules will fuse with the plasma membrane. They are then expressed on the cell surface: activated basophils thereby become CD63+. Further to CD63, another marker specific to basophils makes it possible to better target them, it is CCR3 (chemokine receptor 3). The latter is always expressed by this cell type. Thus, the degranulation of basophils is identified in the flow cytometry window as CD63+ and CCR3+.
In a first step 2 patients have been sampled. substance P has been tested at a dose of 10 μmoles.
After 30 minutes, degranulation in each of the tubes is around 7% as with the negative control.

[3] = biological target: T2, NK 1 receptor (Homo sapiens, UniProt P25103); assay: NK 1 receptor binding (method of Heuillet et al.); settings: FIG. 8
T2 construct: human NK1 tachykinin receptor in the astrocytoma cell line U 373 MG; endogenous in cells; host or cells: U 373 MG human astrocytoma cells (per the cited method)
T2 sequence (P25103 whole entry): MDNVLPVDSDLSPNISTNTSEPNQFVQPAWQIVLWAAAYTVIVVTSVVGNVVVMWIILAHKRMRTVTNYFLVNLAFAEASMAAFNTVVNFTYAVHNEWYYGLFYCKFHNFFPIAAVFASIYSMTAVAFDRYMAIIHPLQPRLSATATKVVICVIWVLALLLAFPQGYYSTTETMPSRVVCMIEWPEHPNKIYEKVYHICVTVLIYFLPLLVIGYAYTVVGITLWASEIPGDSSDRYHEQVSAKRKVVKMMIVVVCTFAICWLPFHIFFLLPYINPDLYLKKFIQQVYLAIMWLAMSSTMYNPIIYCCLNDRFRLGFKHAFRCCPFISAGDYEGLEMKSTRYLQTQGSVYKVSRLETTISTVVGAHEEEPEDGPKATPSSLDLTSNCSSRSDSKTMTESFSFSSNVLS
Experimental: Tritoqualine has been tested on the NK 1 receptor according to the method described by Heuillet et al., Characterization of a human NK1 tachykinin receptor in the astrocytoma cell line U 373 MG. Heuillet E et al. Neurochem. 1993 March.

[4] = cited from earlier work
[5] = biological target: T3, histidine decarboxylase (Homo sapiens, UniProt P19113); settings: known anti-allergic activity; cited from earlier work
T3 sequence (P19113 1-662): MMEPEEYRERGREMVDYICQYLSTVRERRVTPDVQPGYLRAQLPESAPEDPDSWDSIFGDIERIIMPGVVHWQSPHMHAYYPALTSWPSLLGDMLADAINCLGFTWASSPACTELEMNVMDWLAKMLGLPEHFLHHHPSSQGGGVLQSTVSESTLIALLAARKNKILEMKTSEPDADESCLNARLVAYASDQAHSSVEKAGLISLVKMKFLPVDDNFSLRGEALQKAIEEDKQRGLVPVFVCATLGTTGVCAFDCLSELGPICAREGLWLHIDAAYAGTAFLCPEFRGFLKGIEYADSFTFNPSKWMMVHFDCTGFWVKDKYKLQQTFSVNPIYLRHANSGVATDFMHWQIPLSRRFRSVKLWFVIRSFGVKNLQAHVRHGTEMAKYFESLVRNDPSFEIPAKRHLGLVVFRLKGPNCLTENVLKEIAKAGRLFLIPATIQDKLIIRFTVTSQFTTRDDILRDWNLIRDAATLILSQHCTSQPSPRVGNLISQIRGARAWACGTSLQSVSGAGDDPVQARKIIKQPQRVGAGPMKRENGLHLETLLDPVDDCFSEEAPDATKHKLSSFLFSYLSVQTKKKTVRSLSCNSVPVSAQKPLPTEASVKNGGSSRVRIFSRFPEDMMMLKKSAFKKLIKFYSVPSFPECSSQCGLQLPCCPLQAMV

effect of Inh172 on cell potential ([1]; non-mutated epithelial cells, apical side): completely blocks
effect of Inh172 on cell potential ([1]; non-mutated lacrimal gland epithelial cells (second experiment)): completely blocks
Molecule: O=C(O)c1ccc(C=C2SC(=S)N(c3cccc(C(F)(F)F)c3)C2=O)cc1 [Inh172]

Molecule: substance P: NK 1 agonist (supplier Sigma-Aldrich) (RPKPQQFFGLM-NH2; UniProt P20366 58-68, looked up)
CD63 present on the basophil (degranulation) ([2]; substance P at 10 μmoles, basophils of 2 patients): 70%

pEC50 ([1]; apical pole, FIG. 2, read-out: EC50 activity, apical pole): 5.47
pEC50 ([1]; basal pole, FIG. 3, read-out: EC50, basal pole): 5.31
short circuit current differential after addition of tritoqualine ([1]; non-mutated epithelial cells, apical side, increases from 16): more than 20 μA/cm^2
short circuit current differential after addition of tritoqualine ([1]; non-mutated lacrimal gland epithelial cells, printed 'apical side' (second experiment), increases from 6.5): more than 7.5 μA/cm^2
affinity (percent inhibition) on NK 1 receptor [3]: 97%
Molecule: CCOc1c(N)c2c(c(OCC)c1OCC)C(C1c3c(cc4c(c3OC)OCO4)CCN1C)OC2=O (stereo not drawn) [tritoqualine, AMINO-7 TRIETHOXY-4,5,6 OXO-1 DIHYDRO-1,3 ISOBENZOFURANNYL-3)-1METHOXY-8METHYL-2METHYLENEDIOXY-6,7TETRAHYDRO-,2,3,4ISOQUINOLINE]
degranulation after substance P in presence of tritoqualine ([2]; tritoqualine 10 pmoles (FIG. 10: 10 μM), then substance P, after 30 minutes, as with the negative control): around 7%
solubility in benzene and acetone ([4]; benzene and acetone): sparingly soluble
solubility in water ([4]; water): Insoluble
inhibitory action on histidine decarboxylase [5]: very weak
